The record followed here is US10689425B2, “Collagen-binding synthetic peptidoglycans, preparation, and methods of use” (Purdue Research Foundation, priority 2008, dated 2020).

Test [1] concerns the target T1, collagen type I gels (Bos taurus, UniProt P02453+P02465).
T1 construct: purchased Inamed, Freemont, Calif; (Nutragen)
Kind of test: Viscoelastic characterization of collagen type I gels (rheometer). To be noted: 5:1, 10:1 and 30:1 collagen:additive; 0.1-1.0 Hz, 1.0 Pa. As to the method:
The PTFE printing restricted gels to the 20 mm diameter wettable region. Gels were formed in a humidified incubator at 37° C. overnight prior to mechanical testing. Slides were clamped on the rheometer stage of a AR-G2 rheometer with 20 mm stainless steel parallel plate geometry (TA Instruments, New Castle, Del.), and the 20 mm stainless steel parallel plate geometry was lowered to a gap distance of 600 μm using a normal force control of 0.25N to avoid excessive shearing on the formed gel. An iterative process of stress and frequency sweeps was performed on gels of collagen alone to determine the linear range. All samples were also tested over a frequency range from 0.1 Hz to 1.0 Hz and a controlled stress of 1.0 Pa. Statistical analysis using Design Expert software ([…], Minneapolis, Minn.) was performed at each frequency and a 5-way ANOVA used to compare samples. […] Viscoelastic characterization was performed as described in EXAMPLE 17 on gels formed with varying ratios of collagen to additive (treatment).

The subject of test [2] is Human coronary artery smooth muscle cells (HCA SMC). Kind of test: Gel compaction by cells seeded in collagen gels. In kind it is cell-based. Particulars: Day 7. How it is done:
Human coronary artery smooth muscle cells (HCA SMC) (Cascade Biologics) were cultured in growth medium (Medium 231 supplemented with smooth muscle growth factor). Cells from passage 3 were used for all experiments. Differentiation medium (Medium 231 supplemented with 1% FBS and 1× pen/strep) was used for all experiments unless otherwise noted.
Collagen gels were prepared with each additive as described with the exception that the 1×PBS example addition was omitted to accommodate the addition of cells in media. After incubating on ice for 30 min, HCA SMCs in differentiation medium were added to the gel solutions to a final concentration of 1×10^6 cells/mL. Gels were formed in quadruplicate in 48-well non-tissue culture treated plates (Costar) for 6 hrs before adding 500 μL/well differentiation medium. Gels were freed from the well edges after 24 hrs. Medium was changed every 2-3 days and images for compaction were taken at the same time points using a Gel Doc System (Bio-Rad). The cross-sectional area of circular gels correlating to degree of compaction was determined using ImageJ software (NIH). Gels containing no cells were used as a negative control and cells in collagen gels absent additive were used as a positive control. By day 10 all gels had compacted to approximately 10% of the original gel area, and differences between additives were small.

Test [3] has as its system HCA SMCs. Kind of test: Elastin content by Fastin elastin assay. Format: cell-based, Human. To be noted: gels cultured for 10 days. How it is done:
Differentiation medium was changed every three days and gels were cultured for 10 days. […] Gels were rinsed in 1×PBS overnight to remove serum protein, and gels were tested for elastin content using the Fastin elastin assay per manufacturers protocol (Biocolor, County […].). Briefly, gels were solubilized in 0.25 M oxalic acid by incubating at 100° C. for 1 hr. Elastin was precipitated and samples were then centrifuged at 11,000×g for 10 min. The solubilized collagen supernatant was removed and the elastin pellet was stained by Fastin Dye Reagent for 90 min at room temperature. Samples were centrifuged at 11,000×g for 10 min and unbound dye in the supernatant was removed. Dye from the elastin pellets was released by the Fastin Dye Dissociation Reagent, and 100 μL samples were transferred to a 96-well plate (Costar). Absorbance was measured at 513 nm, and elastin content was calculated from an α-elastin standard curve.

T1 sequence (P02453 162-1217 limits assumed): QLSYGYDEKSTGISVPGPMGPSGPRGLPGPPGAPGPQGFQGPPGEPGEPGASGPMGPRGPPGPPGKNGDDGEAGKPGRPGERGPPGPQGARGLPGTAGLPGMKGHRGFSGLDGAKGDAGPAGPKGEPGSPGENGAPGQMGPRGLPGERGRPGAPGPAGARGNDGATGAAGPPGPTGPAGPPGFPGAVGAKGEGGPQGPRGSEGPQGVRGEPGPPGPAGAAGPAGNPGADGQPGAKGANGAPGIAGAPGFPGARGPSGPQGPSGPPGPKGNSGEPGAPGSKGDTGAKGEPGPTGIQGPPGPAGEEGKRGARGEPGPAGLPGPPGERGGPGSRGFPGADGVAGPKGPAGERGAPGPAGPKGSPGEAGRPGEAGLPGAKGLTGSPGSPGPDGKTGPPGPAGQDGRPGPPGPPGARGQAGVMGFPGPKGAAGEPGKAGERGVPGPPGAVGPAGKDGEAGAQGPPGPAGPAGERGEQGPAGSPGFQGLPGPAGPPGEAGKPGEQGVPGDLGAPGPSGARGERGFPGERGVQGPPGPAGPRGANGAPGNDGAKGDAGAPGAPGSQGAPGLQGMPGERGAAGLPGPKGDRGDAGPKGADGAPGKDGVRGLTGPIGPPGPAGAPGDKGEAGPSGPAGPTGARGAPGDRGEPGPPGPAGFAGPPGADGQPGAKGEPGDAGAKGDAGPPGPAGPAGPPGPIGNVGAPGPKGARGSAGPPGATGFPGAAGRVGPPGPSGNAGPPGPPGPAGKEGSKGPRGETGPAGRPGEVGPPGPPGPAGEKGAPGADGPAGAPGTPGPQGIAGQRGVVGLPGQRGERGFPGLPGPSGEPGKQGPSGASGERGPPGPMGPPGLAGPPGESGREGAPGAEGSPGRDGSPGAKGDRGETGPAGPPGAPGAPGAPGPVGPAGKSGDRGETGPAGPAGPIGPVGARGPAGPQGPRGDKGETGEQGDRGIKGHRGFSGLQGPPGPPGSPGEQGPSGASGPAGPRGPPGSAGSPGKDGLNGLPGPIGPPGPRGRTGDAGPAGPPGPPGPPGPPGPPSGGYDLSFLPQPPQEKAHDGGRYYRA
T1 sequence (P02465 80-1117 limits assumed): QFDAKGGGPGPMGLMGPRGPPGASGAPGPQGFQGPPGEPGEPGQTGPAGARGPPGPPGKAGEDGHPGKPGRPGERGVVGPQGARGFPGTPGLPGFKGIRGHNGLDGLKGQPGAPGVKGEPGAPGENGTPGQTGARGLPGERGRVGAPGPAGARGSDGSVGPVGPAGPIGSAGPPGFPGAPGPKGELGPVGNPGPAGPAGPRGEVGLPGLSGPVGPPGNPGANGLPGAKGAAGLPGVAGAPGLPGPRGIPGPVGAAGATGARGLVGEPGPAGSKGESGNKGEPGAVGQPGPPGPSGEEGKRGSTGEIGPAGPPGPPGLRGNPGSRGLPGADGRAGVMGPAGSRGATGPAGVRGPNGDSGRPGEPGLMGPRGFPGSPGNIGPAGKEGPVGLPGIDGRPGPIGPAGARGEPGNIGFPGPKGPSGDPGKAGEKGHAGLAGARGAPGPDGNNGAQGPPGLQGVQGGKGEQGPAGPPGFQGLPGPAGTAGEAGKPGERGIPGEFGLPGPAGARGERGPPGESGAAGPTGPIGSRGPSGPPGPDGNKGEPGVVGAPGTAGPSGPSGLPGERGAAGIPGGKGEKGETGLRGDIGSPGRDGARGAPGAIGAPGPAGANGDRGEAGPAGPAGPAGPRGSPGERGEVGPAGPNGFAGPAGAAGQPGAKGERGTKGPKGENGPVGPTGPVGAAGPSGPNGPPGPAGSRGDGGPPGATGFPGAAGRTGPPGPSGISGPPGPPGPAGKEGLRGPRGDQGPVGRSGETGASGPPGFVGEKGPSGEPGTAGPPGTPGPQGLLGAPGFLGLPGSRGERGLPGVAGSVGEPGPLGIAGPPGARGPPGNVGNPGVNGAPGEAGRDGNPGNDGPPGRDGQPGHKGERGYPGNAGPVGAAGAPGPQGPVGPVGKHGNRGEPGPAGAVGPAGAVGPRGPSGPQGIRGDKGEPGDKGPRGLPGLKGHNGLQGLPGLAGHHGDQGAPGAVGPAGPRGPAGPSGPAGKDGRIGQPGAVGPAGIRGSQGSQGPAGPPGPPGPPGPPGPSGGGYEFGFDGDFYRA

On to dermatan sulfate [DS], for which the “Stiffness of collagen gel (storage modulus G')” value in test [1] is “increase the stiffness of the resulting collagen gel over untreated collagen”. Also, in test [2], the “Gel compaction, statistical significance” value is “significant compared to collagen”. The Elastin production entry in test [3] is “significantly decreased elastin production over untreated collagen”.
